Experimental data: PubChem BioAssay AID1963845 (Molecular Pharmacology Branch, DTP, NCI, 2024)

Tested on: 429239-143-T-J1-PDC complex spheroid viability
Assay: Anticancer human tumor 429239-143-T-J1-PDC patient-derived small cell lung carcinoma cell line growth inhibition [POLQ]
Details: for IC50: curve of first compound; for viability, T/C: stronger effect = lower value; active = viability on the fitted dose curve at most 10% of control; inactive = the rest
In short: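 Patient-derived tumour cells were co-cultured with HUVEC and mesenchymal stem cells as multicellular spheroids at 37 °C. They were treated with POLQ inhibitors (novobiocin, ART-558, RP6685) alone or combined with other agents. Top concentrations were at or near clinical Cmax (otherwise 10 microM; SN-38 at 1 microM), decreasing in half-log steps.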

[1] = second compound 0.0316 µM, first compound 0.0316 µM
[2] = second compound 0.0316 µM, first compound 0.1 µM
[3] = second compound 0.0316 µM, first compound 0.316 µM
[4] = second compound 0.0316 µM, first compound 1 µM
[5] = second compound 0.0316 µM, first compound 3.16 µM
[6] = second compound 0.0316 µM, first compound 10 µM
[7] = second compound 0.1 µM, first compound 0.0316 µM
[8] = second compound 0.1 µM, first compound 0.1 µM
[9] = second compound 0.1 µM, first compound 0.316 µM
[10] = second compound 0.1 µM, first compound 1 µM
[11] = second compound 0.1 µM, first compound 3.16 µM
[12] = second compound 0.1 µM, first compound 10 µM
[13] = second compound 0.316 µM, first compound 0.0316 µM
[14] = second compound 0.316 µM, first compound 0.1 µM
[15] = second compound 0.316 µM, first compound 0.316 µM
[16] = second compound 0.316 µM, first compound 1 µM
[17] = second compound 0.316 µM, first compound 3.16 µM
[18] = second compound 0.316 µM, first compound 10 µM
[19] = second compound 1 µM, first compound 0.0316 µM
[20] = second compound 1 µM, first compound 0.1 µM
[21] = second compound 1 µM, first compound 0.316 µM
[22] = second compound 1 µM, first compound 1 µM
[23] = second compound 1 µM, first compound 3.16 µM
[24] = second compound 1 µM, first compound 10 µM
[25] = second compound 3.16 µM, first compound 0.0316 µM
[26] = second compound 3.16 µM, first compound 0.1 µM
[27] = second compound 3.16 µM, first compound 0.316 µM
[28] = second compound 3.16 µM, first compound 1 µM
[29] = second compound 3.16 µM, first compound 3.16 µM
[30] = second compound 3.16 µM, first compound 10 µM
[31] = second compound 10 µM, first compound 0.0316 µM
[32] = second compound 10 µM, first compound 0.1 µM
[33] = second compound 10 µM, first compound 0.316 µM
[34] = second compound 10 µM, first compound 1 µM
[35] = second compound 10 µM, first compound 3.16 µM
[36] = second compound 10 µM, first compound 10 µM
[37] = second compound 0.0316 µM, first compound 0.00316 µM
[38] = second compound 0.0316 µM, first compound 0.01 µM
[39] = second compound 0.1 µM, first compound 0.00316 µM
[40] = second compound 0.1 µM, first compound 0.01 µM
[41] = second compound 0.316 µM, first compound 0.00316 µM
[42] = second compound 0.316 µM, first compound 0.01 µM
[43] = second compound 1 µM, first compound 0.00316 µM
[44] = second compound 1 µM, first compound 0.01 µM
[45] = second compound 3.16 µM, first compound 0.00316 µM
[46] = second compound 3.16 µM, first compound 0.01 µM
[47] = second compound 10 µM, first compound 0.00316 µM
[48] = second compound 10 µM, first compound 0.01 µM
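Also: luminescence signal used as surrogate measure of viable cells; spheroids exposed to compounds for seven days before readout.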
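For viability, T/C in this document: 100% = DMSO vehicle control viability as luminescence relative to vehicle.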

CC1COCCN1c1cc(C2(S(C)(=N)=O)CC2)nc(-c2ccnc3[nH]ccc23)n1 (stereo not drawn) + Cc1cccc(N(C)C(=O)C2C(O)CCN2c2nc(C)cc(C(F)(F)F)c2C#N)c1
2.21 µM: IC50 (second compound 0.0316 µM)
inactive: viability, T/C [1] 108% | viability, T/C [2] 105% | viability, T/C [3] 92.9% | viability, T/C [4] 77.3% | viability, T/C [5] 37.2% | viability, T/C [6] 15.9% | viability, T/C [7] 105% | viability, T/C [8] 106% | viability, T/C [9] 96.7% | viability, T/C [10] 72.9% | viability, T/C [11] 37.6% | viability, T/C [12] 16% | viability, T/C [13] 101% | viability, T/C [14] 99.6% | viability, T/C [15] 97.2% | viability, T/C [16] 73.6% | viability, T/C [17] 34.9% | viability, T/C [18] 17.3% | viability, T/C [19] 91.2% | viability, T/C [20] 98.9% | viability, T/C [21] 89.7% | viability, T/C [22] 75.7% | viability, T/C [23] 35.8% | viability, T/C [24] 17.7% | viability, T/C [25] 96.9% | viability, T/C [26] 97.6% | viability, T/C [27] 94.5% | viability, T/C [28] 71.3% | viability, T/C [29] 42.6% | viability, T/C [30] 18.3% | viability, T/C [31] 105% | viability, T/C [32] 103% | viability, T/C [33] 98.4% | viability, T/C [34] 60.2% | viability, T/C [35] 50.3% | viability, T/C [36] 17.8%
2.1 µM: IC50 (second compound 0.1 µM) | IC50 (second compound 1 µM)
2.41 µM: IC50 (second compound 10 µM)
2.32 µM: IC50 (second compound 3.16 µM)
2.02 µM: IC50 (second compound 0.316 µM)

CNCc1ccc(-c2[nH]c3cc(F)cc4c3c2CCNC4=O)cc1 + Cc1cccc(N(C)C(=O)C2C(O)CCN2c2nc(C)cc(C(F)(F)F)c2C#N)c1
inactive: viability, T/C [1] 113% | viability, T/C [2] 83.8% | viability, T/C [3] 85.1% | viability, T/C [4] 75% | viability, T/C [5] 51% | viability, T/C [6] 21.1% | viability, T/C [7] 90.9% | viability, T/C [8] 92.7% | viability, T/C [9] 79.4% | viability, T/C [10] 66.2% | viability, T/C [11] 47.5% | viability, T/C [12] 19.7% | viability, T/C [13] 97.8% | viability, T/C [14] 94.7% | viability, T/C [15] 75.8% | viability, T/C [16] 70.7% | viability, T/C [17] 40% | viability, T/C [18] 22.7% | viability, T/C [19] 86.7% | viability, T/C [20] 82.3% | viability, T/C [21] 72.3% | viability, T/C [22] 66.2% | viability, T/C [23] 42.4% | viability, T/C [24] 24.4% | viability, T/C [25] 91.3% | viability, T/C [26] 84.9% | viability, T/C [27] 95.5% | viability, T/C [28] 62.9% | viability, T/C [29] 47.8% | viability, T/C [30] 22% | viability, T/C [31] 80.3% | viability, T/C [32] 91.4% | viability, T/C [33] 83.8% | viability, T/C [34] 61.8% | viability, T/C [35] 54.2% | viability, T/C [36] 23%
2.22 µM: IC50 (second compound 1 µM)
2.6 µM: IC50 (second compound 0.1 µM)
3.24 µM: IC50 (second compound 10 µM)
2.21 µM: IC50 (second compound 0.316 µM)
3.09 µM: IC50 (second compound 0.0316 µM)
2.45 µM: IC50 (second compound 3.16 µM)

COc1cccc(OCCCN)c1-c1cc(Nc2cnc(C#N)cn2)n[nH]1 + Cc1cccc(N(C)C(=O)C2C(O)CCN2c2nc(C)cc(C(F)(F)F)c2C#N)c1
0.339 µM: IC50 (second compound 0.1 µM)
0.227 µM: IC50 (second compound 10 µM)
inactive: viability, T/C [37] 101% | viability, T/C [38] 110% | viability, T/C [1] 87.7% | viability, T/C [2] 73.1% | viability, T/C [3] 52.7% | viability, T/C [4] 39.3% | viability, T/C [39] 101% | viability, T/C [40] 106% | viability, T/C [7] 92.9% | viability, T/C [8] 72% | viability, T/C [9] 52.7% | viability, T/C [10] 36.7% | viability, T/C [41] 106% | viability, T/C [42] 108% | viability, T/C [13] 86.4% | viability, T/C [14] 67.2% | viability, T/C [15] 46.6% | viability, T/C [16] 32% | viability, T/C [43] 108% | viability, T/C [44] 105% | viability, T/C [19] 90.8% | viability, T/C [20] 68.1% | viability, T/C [21] 46.5% | viability, T/C [22] 33.1% | viability, T/C [45] 117% | viability, T/C [46] 108% | viability, T/C [25] 93.8% | viability, T/C [26] 65.4% | viability, T/C [27] 49.8% | viability, T/C [28] 34.9% | viability, T/C [47] 118% | viability, T/C [48] 92.1% | viability, T/C [31] 92.1% | viability, T/C [32] 66.4% | viability, T/C [33] 39.3% | viability, T/C [34] 27.7%
0.248 µM: IC50 (second compound 0.316 µM)
0.377 µM: IC50 (second compound 0.0316 µM)
0.256 µM: IC50 (second compound 1 µM)
0.273 µM: IC50 (second compound 3.16 µM)

Cn1ncnc1[C@H]1c2n[nH]c(=O)c3cc(F)cc(c23)N[C@@H]1c1ccc(F)cc1 + Cc1cccc(N(C)C(=O)C2C(O)CCN2c2nc(C)cc(C(F)(F)F)c2C#N)c1
0.027 µM: IC50 (second compound 3.16 µM)
0.0198 µM: IC50 (second compound 0.0316 µM)
0.019 µM: IC50 (second compound 0.1 µM)
0.0246 µM: IC50 (second compound 0.316 µM)
0.0193 µM: IC50 (second compound 1 µM)
inactive: viability, T/C (second compound 0.0316 µM, first compound 0.000316 µM) 107% | viability, T/C (second compound 0.0316 µM, first compound 0.001 µM) 107% | viability, T/C [37] 88.4% | viability, T/C [38] 62.4% | viability, T/C [1] 42.7% | viability, T/C [2] 29.6% | viability, T/C (second compound 0.1 µM, first compound 0.000316 µM) 87.6% | viability, T/C (second compound 0.1 µM, first compound 0.001 µM) 98.4% | viability, T/C [39] 78.1% | viability, T/C [40] 65.9% | viability, T/C [7] 34.7% | viability, T/C [8] 39.8% | viability, T/C (second compound 0.316 µM, first compound 0.000316 µM) 93.5% | viability, T/C (second compound 0.316 µM, first compound 0.001 µM) 86.2% | viability, T/C [41] 73.3% | viability, T/C [42] 65.7% | viability, T/C [13] 44.7% | viability, T/C [14] 29.2% | viability, T/C (second compound 1 µM, first compound 0.000316 µM) 97.1% | viability, T/C (second compound 1 µM, first compound 0.001 µM) 98.7% | viability, T/C [43] 74.6% | viability, T/C [44] 57.8% | viability, T/C [19] 47.1% | viability, T/C [20] 31.8% | viability, T/C (second compound 3.16 µM, first compound 0.000316 µM) 95.8% | viability, T/C (second compound 3.16 µM, first compound 0.001 µM) 83% | viability, T/C [45] 84.4% | viability, T/C [46] 60.5% | viability, T/C [25] 49.1% | viability, T/C [26] 30.2% | viability, T/C (second compound 10 µM, first compound 0.000316 µM) 91.8% | viability, T/C (second compound 10 µM, first compound 0.001 µM) 86.1% | viability, T/C [47] 98.5% | viability, T/C [48] 51.8% | viability, T/C [31] 41.2% | viability, T/C [32] 32%
0.0115 µM: IC50 (second compound 10 µM)
